pIC50: −log10 of the molar value.
Experiments:
[1] = test system: human osteosarcoma cell line SJSA-1; assay: Inhibition of proliferation of human osteosarcoma cell line SJSA-1 (DAPI staining, In Cell Analyzer); conditions: for IC50: Homo sapiens, SJSA-1, 72 h, read-out: IC50 (nM), inhibitory activity on proliferation of human osteosarcoma cell line SJSA-1, SJSA-1, incubated 72 h; for inhibitory effect on human osteosarcoma cell line SJSA-1 compared with positive control compound HDM201: labels are Example numbers, the compounds with S-configuration are meant
MDM2 = target: T1, MDM2 (Homo sapiens, UniProt Q00987); assay: Inhibition test of MDM2-P53 (GST-MDM2, Biotin-P53, Anti-GST-Tb, SA-XL665); assay type: binding; conditions: for inhibitory effect on MDM2 compared with positive control compound HDM201: labels are Example numbers, the compounds with S-configuration are meant
T1 construct: made in house
How it was run: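 Binding was measured by TR-FRET with GST-MDM2 at 4 nM final in PBS with 0.1% BSA, 5 mM DTT and 1 mM AEBSF. Compounds were tested as twelve-point 5-fold dilutions and incubated with the detection mix for 90 min at 25 °C with shaking before plate-reader reading and curve fitting.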

T1 sequence (Q00987 whole entry): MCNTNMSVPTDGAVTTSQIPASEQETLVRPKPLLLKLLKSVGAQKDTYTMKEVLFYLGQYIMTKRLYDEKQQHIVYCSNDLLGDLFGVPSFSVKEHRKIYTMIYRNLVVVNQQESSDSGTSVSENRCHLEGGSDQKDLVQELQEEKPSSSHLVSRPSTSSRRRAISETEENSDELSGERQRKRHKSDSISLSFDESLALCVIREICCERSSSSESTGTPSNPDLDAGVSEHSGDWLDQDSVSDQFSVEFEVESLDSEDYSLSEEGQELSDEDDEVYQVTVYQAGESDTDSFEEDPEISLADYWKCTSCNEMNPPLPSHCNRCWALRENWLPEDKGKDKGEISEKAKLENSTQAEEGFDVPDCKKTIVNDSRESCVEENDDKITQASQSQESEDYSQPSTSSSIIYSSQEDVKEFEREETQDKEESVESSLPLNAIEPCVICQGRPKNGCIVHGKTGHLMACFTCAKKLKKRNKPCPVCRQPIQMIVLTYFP

For COc1ccc(C(C)C)c(-c2nc3c(n2C(C)C)[C@@]2(C(=O)Nc4cc(Cl)ccc42)N(c2cc(Cl)ccc2C)C3=O)c1 [Example S-19, (S)-6-chloro-5′-(5-chloro-2-methylphenyl)-3′-isopropyl-2′-(2-isopropyl-5-methoxyphenyl)-3′H-spiro[dihydroindole-3,4′-pyrrolo[3,4-d]imidazole]-2,6′(5′H)-dione], the IC50 [1] was 352 nM and the pIC50 (MDM2) was 7.46.

With COc1cc(N(C)C)ncc1-c1nc2c(n1C(C)C)[C@@]1(C(=O)Nc3cc(Cl)ccc31)N(c1cc(Cl)ccc1C)C2=O [Example S-111, (S)-6-chloro-5′-(5-chloro-2-methylphenyl)-2′-(6-(dimethylamino)-4-methoxypyridin-3-yl)-3′-isopropyl-3′H-spiro[dihydroindole-3,4′-pyrrolo[3,4-d]imidazole]-2,6′(5′H)-dione] the IC50 [1] was 13 nM and the pIC50 (MDM2) was 8.82.

For COc1ncc(-c2nc3c(n2C(C)C)[C@@]2(C(=O)Nc4cc(Cl)ccc42)N(c2ccc(C#N)c(Cl)c2)C3=O)c(OC)n1 [Example S-158, (S)-2-chloro-4-(6-chloro-2′-(2,4-dimethoxypyrimidin-5-yl)-3′-isopropyl-2,6′-dioxo-3′,6′-dihydro-5′H-spiro[dihydroindole-3,4′-pyrrolo[3,4-d]imidazole]-5′-yl)benzonitrile], the IC50 [1] was 550 nM and the pIC50 (MDM2) was 8.39.

Compound COc1ncc(-c2nc3c(n2C(C)C)[C@]2(C(=O)Nc4cc(Cl)ccc42)N(c2cccc(C)c2)C3=O)c(OC)n1 [Example R-55, (R)-6-chloro-2′-(2,4-dimethoxypyrimidin-5-yl)-3′-isopropyl-5′-(m-tolyl)-3′H-spiro[dihydroindole-3,4′-pyrrolo[3,4-d]imidazole]-2,6′(5′H)-dione] has an IC50 [1] of 9940 nM and a pIC50 (MDM2) of 6.36.

Compound COc1cc(C)ccc1-c1nc2c(n1C(C)C)[C@]1(C(=O)Nc3cc(Cl)ccc31)N(c1cccc(Cl)c1)C2=O [Example R-109, (R)-6-chloro-5′-(3-chlorophenyl)-3′-isopropyl-2′-(2-methoxy-4-methylphenyl)-3′H-spiro[dihydroindole-3,4′-pyrrolo[3,4-d]imidazole]-2,6′(5′H)-dione] has an IC50 [1] of 8200 nM and a pIC50 (MDM2) of 6.42.

Work on COc1nc(OC(C)C)ncc1-c1nc2c(n1C(C)C)[C@]1(C(=O)Nc3cc(Cl)ccc31)N(c1cc(Cl)ccc1C)C2=O [Example R-126, (R)-6-chloro-5′-(5-chloro-2-methylphenyl)-2′-(2-isopropoxy-4-methoxypyrimidin-5-yl)-3′-isopropyl-3′H-spiro[dihydroindole-3,4′-pyrrolo[3,4-d]imidazole]-2,6′(5′H)-dione] yielded an IC50 [1] of 1590 nM and a pIC50 (MDM2) of 6.71.

Compound COc1cc(N)ccc1-c1nc2c(n1C(C)C)[C@@]1(C(=O)Nc3cc(Cl)ccc31)N(c1cc(Cl)ccc1F)C2=O [Example S-66, (S)-2′-(4-amino-2-methoxyphenyl)-6-chloro-5′-(5-chloro-2-fluorophenyl)-3′-isopropyl-3′H-spiro[dihydroindole-3,4′-pyrrolo[3,4-d]imidazole]-2,6′(5′H)-dione] has an IC50 [1] of 39.6 nM and a pIC50 (MDM2) of 8.82.

Compound COc1ncncc1-c1nc2c(n1C(C)C)[C@@]1(C(=O)Nc3cc(Cl)ccc31)N(c1cc(Cl)ccc1C)C2=O [Example S-27, (S)-6-chloro-5′-(5-chloro-2-methylphenyl)-3′-isopropyl-2′-(4-methoxypyrimidin-5-yl)-3′H-spiro[dihydroindole-3,4′-pyrrolo[3,4-d]imidazole]-2,6′(5′H)-dione] has an IC50 [1] of 119 nM and a pIC50 (MDM2) of 8.46.

Compound COc1cc(N(C)C)ccc1-c1nc2c(n1C(C)C)[C@@]1(C(=O)Nc3cc(Cl)ccc31)N(c1cc(Cl)ccc1F)C2=O [Example S-81, (S)-6-chloro-5′-(5-chloro-2-fluorophenyl)-2′-(4-(dimethylamino)-2-methoxyphenyl)-3′-isopropyl-3′H-spiro[dihydroindole-3,4′-pyrrolo[3,4-d]imidazole]-2,6′(5′H)-dione] has an IC50 [1] of 82.8 nM and a pIC50 (MDM2) of 8.91.

With COc1ccc(-c2nc3c(n2C(C)C)[C@]2(C(=O)Nc4cc(Cl)ccc42)N(c2cc(Cl)cnc2C)C3=O)c(OC)c1 [Example R-61, (R)-6-chloro-5′-(5-chloro-2-methylpyridin-3-yl)-2′-(2,4-dimethoxyphenyl)-3′-isopropyl-3′H-spiro[dihydroindole-3,4′-pyrrolo[3,4-d]imidazole]-2,6′(5′H)-dione] the IC50 [1] was 136 nM and the pIC50 (MDM2) was 6.87.

Compound COc1cc(N)ccc1-c1nc2c(n1C(C)C)[C@]1(C(=O)Nc3cc(Cl)ccc31)N(c1cc(Cl)ccc1F)C2=O [Example R-66, (R)-2′-(4-amino-2-methoxyphenyl)-6-chloro-5′-(5-chloro-2-fluorophenyl)-3′-isopropyl-3′H-spiro[dihydroindole-3,4′-pyrrolo[3,4-d]imidazole]-2,6′(5′H)-dione] has an IC50 [1] of 3860 nM and a pIC50 (MDM2) of 7.07.

For COc1cc(C(C)C)ccc1-c1nc2c(n1C(C)C)[C@]1(C(=O)Nc3cc(Cl)ccc31)N(c1cc(Cl)ccc1C)C2=O [Example R-32, (R)-6-chloro-5′-(5-chloro-2-methylphenyl)-3′-isopropyl-2′-(4-isopropyl-2-methoxyphenyl)-3′H-spiro[dihydroindole-3,4′-pyrrolo[3,4-d]imidazole]-2,6′(5′H)-dione], the IC50 [1] was 8200 nM and the pIC50 (MDM2) was 5.96.

Compound COc1cc(C2CC2)ccc1-c1nc2c(n1C(C)C)[C@@]1(C(=O)Nc3cc(Cl)ccc31)N(c1cc(Cl)cnc1C)C2=O [Example S-145, (S)-6-chloro-5′-(5-chloro-2-methylpyridin-3-yl)-2′-(4-cyclopropyl-2-methoxyphenyl)-3′-isopropyl-3′H-spiro[dihydroindole-3,4′-pyrrolo[3,4-d]imidazole]-2,6′(5′H)-dione] has an IC50 [1] of 28.2 nM and a pIC50 (MDM2) of 8.69.

COc1ncc(-c2nc3c(n2C(C)C)[C@]2(C(=O)Nc4cc(Cl)ccc42)N(c2cc(C)ccc2C)C3=O)c(OC)n1 [Example R-56, (R)-6-chloro-2′-(2,4-dimethoxypyrimidin-5-yl)-5′-(2,5-dimethylphenyl)-3′-isopropyl-3′H-spiro[dihydroindole-3,4′-pyrrolo[3,4-d]imidazole]-2,6′(5′H)-dione] gave an IC50 [1] of 3480 nM and a pIC50 (MDM2) of 6.81.

Compound COc1ccc(-c2nc3c(n2C(C)C)[C@@]2(C(=O)Nc4cc(Cl)ccc42)N(c2cc(Cl)c(=O)n(C)c2)C3=O)c(OC)c1 [Example S-52, (S)-6-chloro-5′-(5-chloro-1-methyl-6-oxo-1,6-dihydropyridin-3-yl)-2′-(2,4-dimethoxyphenyl)-3′-isopropyl-3′H-spiro[dihydroindole-3,4′-pyrrolo[3,4-d]imidazole]-2,6′(5′H)-dione] has an IC50 [1] of 467 nM and a pIC50 (MDM2) of 9.06.

COc1ccc(-c2nc3c(n2C(C)C)[C@@]2(C(=O)Nc4cc(Cl)ccc42)N(c2cc(Cl)ccc2C)C3=O)c(OC)n1 [Example S-8, (S)-6-chloro-5′-(5-chloro-2-methylphenyl)-2′-(2,6-dimethoxypyridin-3-yl)-3′-isopropyl-3′H-spiro[dihydroindole-3,4′-pyrrolo[3,4-d]imidazole]-2,6′(5′H)-dione] showed an IC50 [1] of 10.3 nM and a pIC50 (MDM2) of 8.48.

For COc1cc(-c2nc3c(n2C(C)C)[C@]2(C(=O)Nc4cc(Cl)ccc42)N(c2cc(Cl)ccc2C)C3=O)c(OC)cn1 [Example R-40, (R)-6-chloro-5′-(5-chloro-2-methylphenyl)-2′-(2,5-dimethoxypyridin-4-yl)-3′-isopropyl-3′H-spiro[dihydroindole-3,4′-pyrrolo[3,4-d]imidazole]-2,6′(5′H)-dione], the IC50 [1] was 3090 nM and the pIC50 (MDM2) was 6.49.

Work on COc1cc(CN(C)C)ccc1-c1nc2c(n1C(C)C)[C@@]1(C(=O)Nc3cc(Cl)ccc31)N(c1cc(Cl)ccc1C)C2=O [Example S-47, (S)-6-chloro-5′-(5-chloro-2-methylphenyl)-2′-(4-((dimethylamino)methyl)-2-methoxyphenyl)-3′-isopropyl-3′H-spiro[dihydroindole-3,4′-pyrrolo[3,4-d]imidazole]-2,6′(5′H)-dione] yielded an IC50 [1] of 14 nM and a pIC50 (MDM2) of 8.38.

COc1ccc(C#N)cc1-c1nc2c(n1C(C)C)[C@@]1(C(=O)Nc3cc(Cl)ccc31)N(c1cc(Cl)ccc1C)C2=O [Example S-13, (S)-3-(6-chloro-5′-(5-chloro-2-methylphenyl)-3′-isopropyl-2,6′-dioxo-5′,6′-dihydro-3′H-spiro[dihydroindole-3,4′-pyrrolo[3,4-d]imidazole]-2′-yl)-4-methoxybenzonitrile] showed an IC50 [1] of 5.95 nM and a pIC50 (MDM2) of 8.59.

With COc1cc(OC(C)C)ncc1-c1nc2c(n1C(C)C)C1(C(=O)Nc3cc(Cl)ccc31)N(c1cc(Cl)ccc1C)C2=O (centres unmarked) [Example 69, 6-chloro-5′-(5-chloro-2-methylphenyl)-2′-(6-isopropoxy-4-methoxypyridin-3-yl)-3′-isopropyl-3′H-spiro[dihydroindole-3,4′-pyrrolo[3,4-d]imidazole]-2,6′(5′H)-dione] the “inhibitory effect on human osteosarcoma cell line SJSA-1 compared with positive control compound HDM201” value [1] was “better” and the “inhibitory effect on MDM2 compared with positive control compound HDM201” value (MDM2) was “better”.

COc1cc(C2CC2)ncc1-c1nc2c(n1C(C)C)[C@@]1(C(=O)Nc3cc(Cl)ccc31)N(c1cc(F)cc(Cl)c1)C2=O [Example S-176, (S)-6-chloro-5′-(3-chloro-5-fluorophenyl)-2′-(6-cyclopropyl-4-methoxypyridin-3-yl)-3′-isopropyl-3′H-spiro[dihydroindole-3,4′-pyrrolo[3,4-d]imidazole]-2,6′(5′H)-dione] was tested, and the IC50 [1] was 28.8 nM and the pIC50 (MDM2) was 8.75.

In the case of COc1cc(C(F)(F)F)ncc1-c1nc2c(n1C(C)C)C1(C(=O)Nc3cc(Cl)ccc31)N(c1cc(Cl)ccc1C)C2=O (centres unmarked) [Example 138, 6-chloro-5′-(5-chloro-2-methylphenyl)-3′-isopropyl-2′-(4-methoxy-6-(trifluoromethyl)pyridin-3-yl)-3′H-spiro[dihydroindole-3,4′-pyrrolo[3,4-d]imidazole]-2,6′(5′H)-dione], the “inhibitory effect on human osteosarcoma cell line SJSA-1 compared with positive control compound HDM201” value [1] was “better” and the “inhibitory effect on MDM2 compared with positive control compound HDM201” value (MDM2) was “better”.

Source: patent US11339171B2, “MDM2 inhibitors” (Gan & Lee Pharmaceuticals, priority 2017, dated 2022)
